“And” between values parts separate entries of the source, which are not always exact repeats. Equal entries are not always repeated. Inconclusive results and toxic doses are left out.
System: L1210 leukemia ip in BDF1 mice, survival T/C
Test: NCI In Vivo Anticancer Drug Screen. Data for tumor model L1210 Leukemia (intraperitoneal) in B6D2F1 (BDF1) mice
Conditions: endpoint: mean survival time, higher = longer survival
Summary of the method: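 Transplanted-tumor mice were given test agent; controls received vehicle only. Survival readings from the two groups were divided (treated over control).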

[1] = dose: 50.0 mg/kg/injection, schedule: Q01DX001 (ip), vehicle: saline
[2] = dose: 100.0 mg/kg/injection, schedule: Q01DX001 (ip), vehicle: saline
[3] = dose: 200.0 mg/kg/injection, schedule: Q01DX001 (ip), vehicle: saline
[4] = dose: 400.0 mg/kg/injection, schedule: Q01DX001 (ip), vehicle: saline
[5] = dose: 100.0 mg/kg/injection, schedule: Q01DX009 (ip), vehicle: saline with Tween-80
[6] = dose: 100.0 mg/kg/injection, schedule: Q04DX003 (ip), vehicle: saline with Tween-80
[7] = dose: 200.0 mg/kg/injection, schedule: Q01DX009 (ip), vehicle: saline with Tween-80
[8] = dose: 200.0 mg/kg/injection, schedule: Q04DX003 (ip), vehicle: saline with Tween-80
[9] = dose: 400.0 mg/kg/injection, schedule: Q04DX003 (ip), vehicle: saline with Tween-80
[10] = dose: 15.0 mg/kg/injection, schedule: Q01DX Z (ip), vehicle: saline

## Cc1ccc(NC(=O)Nc2ccccc2Cl)cc1
dose: 100.0 mg/kg/injection, schedule: Q01DX009 (ip), vehicle: gum acacia
  T/C: 86 % of control
dose: 100.0 mg/kg/injection, schedule: Q04DX003 (ip), vehicle: gum acacia
  T/C: 89 % of control
dose: 200.0 mg/kg/injection, schedule: Q01DX009 (ip), vehicle: gum acacia
  T/C: 94 % of control
dose: 200.0 mg/kg/injection, schedule: Q04DX003 (ip), vehicle: gum acacia
  T/C: 89 % of control
dose: 400.0 mg/kg/injection, schedule: Q01DX009 (ip), vehicle: gum acacia
  T/C: 94 % of control
dose: 400.0 mg/kg/injection, schedule: Q04DX003 (ip), vehicle: gum acacia
  T/C: 98 % of control

## CCCCCCc1cc2c(cc1CCCC)CCC2
[1]
  T/C: 95 % of control
[2]
  T/C: 101 % of control
[3]
  T/C: 98 % of control
[4]
  T/C: 116 % of control

## CCCCNC1=C(NC(=O)C(Cl)Cl)C(=O)c2ccccc2C1=O
dose: 2.5 mg/kg/injection, schedule: Q01DX009 (ip), vehicle: saline with Tween-80
  T/C: 103 % of control
dose: 5.0 mg/kg/injection, schedule: Q01DX009 (ip), vehicle: saline with Tween-80
  T/C: 101 % of control
dose: 5.0 mg/kg/injection, schedule: Q04DX003 (ip), vehicle: saline with Tween-80
  T/C: 100 % of control
dose: 10.0 mg/kg/injection, schedule: Q01DX009 (ip), vehicle: saline with Tween-80
  T/C: 98 % of control
dose: 10.0 mg/kg/injection, schedule: Q04DX003 (ip), vehicle: saline with Tween-80
  T/C: 97 % of control

## CCOc1ccc(-n2c(=O)c(N=Nc3ccccc3C)c(O)n(-c3ccc(C)cc3)c2=S)cc1
dose: 37.5 mg/kg/injection, schedule: Q01DX001 (ip), vehicle: Klucel (hydroxypropylcellulose) (HPC)
  T/C: 92 % of control
dose: 75.0 mg/kg/injection, schedule: Q01DX001 (ip), vehicle: Klucel (hydroxypropylcellulose) (HPC)
  T/C: 101 % of control
dose: 150.0 mg/kg/injection, schedule: Q01DX001 (ip), vehicle: Klucel (hydroxypropylcellulose) (HPC)
  T/C: 97 % of control

## CC(Br)C(=O)O (stereo not given)
[1]
  T/C: 94 % of control
[2]
  T/C: 111 % of control

## CC1=CC(O)C(C(C)C)C1 (stereo not given)
dose: 100.0 mg/kg/injection, schedule: Q01DX001 (ip), vehicle: other
  T/C: 102 % of control
dose: 200.0 mg/kg/injection, schedule: Q01DX001 (ip), vehicle: other
  T/C: 98 % of control
dose: 400.0 mg/kg/injection, schedule: Q01DX001 (ip), vehicle: other
  T/C: 98 % of control

## Cc1c(Cl)cccc1NC(=O)/C=C/C(=O)O
[5]
  T/C: 98 % of control
[6]
  T/C: 95 % of control
[7]
  T/C: 94 % of control
[8]
  T/C: 93 % of control
[9]
  T/C: 103 % of control

## O=C(/C=C/c1ccccc1)C(Cl)C(Cl)c1ccccc1 (stereo not given)
dose: 50.0 mg/kg/injection, schedule: Q01DX009 (sc), vehicle: olive oil, sesame oil, peanut oil
  T/C: 101 % of control
dose: 100.0 mg/kg/injection, schedule: Q01DX009 (sc), vehicle: olive oil, sesame oil, peanut oil
  T/C: 101 % of control
dose: 200.0 mg/kg/injection, schedule: Q01DX009 (sc), vehicle: olive oil, sesame oil, peanut oil
  T/C: 97 % of control

## O=C(CCCN1CCC(O)CC1)c1ccccc1
dose: 100.0 mg/kg/injection, schedule: Q04DX003 (ip), vehicle: saline
  T/C: 90 % of control
dose: 200.0 mg/kg/injection, schedule: Q04DX003 (ip), vehicle: saline
  T/C: 104 % of control

## CS(=O)(=O)OCCN(CCOS(C)(=O)=O)c1cccc(N)c1
dose: 0.22 mg/kg/injection, schedule: Q01DX001 (ip), vehicle: saline
  T/C: 105 % of control
dose: 0.33 mg/kg/injection, schedule: Q01DX001 (ip), vehicle: saline
  T/C: 105 % of control
dose: 0.5 mg/kg/injection, schedule: Q01DX001 (ip), vehicle: saline
  T/C: 97 % of control and 110 % of control
dose: 0.75 mg/kg/injection, schedule: Q01DX001 (ip), vehicle: saline
  T/C: 106 % of control
dose: 1.0 mg/kg/injection, schedule: Q01DX001 (ip), vehicle: saline
  T/C: 109 % of control
dose: 2.0 mg/kg/injection, schedule: Q01DX001 (ip), vehicle: saline
  T/C: 117 % of control
dose: 3.5 mg/kg/injection, schedule: Q01DX001 (ip), vehicle: saline
  T/C: 116 % of control
dose: 5.3 mg/kg/injection, schedule: Q01DX001 (ip), vehicle: saline
  T/C: 91 % of control
dose: 8.0 mg/kg/injection, schedule: Q01DX001 (ip), vehicle: saline
  T/C: 209 % of control and 86 % of control

## Cc1cc(NC(=O)Nc2ccccc2C)no1
[5]
  T/C: 89 % of control
[6]
  T/C: 97 % of control
[7]
  T/C: 93 % of control
[8]
  T/C: 101 % of control
dose: 400.0 mg/kg/injection, schedule: Q01DX009 (ip), vehicle: saline with Tween-80
  T/C: 91 % of control
[9]
  T/C: 97 % of control

## CC(/C=N/N(C)C(=N)N)=N\N(C)C(=N)N
[10]
  T/C: 88 % of control
dose: 30.0 mg/kg/injection, schedule: Q01DX Z (ip), vehicle: saline
  T/C: 103 % of control
dose: 60.0 mg/kg/injection, schedule: Q01DX Z (ip), vehicle: saline
  T/C: 98 % of control
dose: 120.0 mg/kg/injection, schedule: Q01DX Z (ip), vehicle: saline
  T/C: 102 % of control
dose: 120.0 mg/kg/injection, schedule: Q01DX Z (oral), vehicle: saline
  T/C: 103 % of control
dose: 240.0 mg/kg/injection, schedule: Q01DX Z (oral), vehicle: saline
  T/C: 97 % of control
dose: 480.0 mg/kg/injection, schedule: Q01DX Z (oral), vehicle: saline
  T/C: 106 % of control
dose: 960.0 mg/kg/injection, schedule: Q01DX Z (oral), vehicle: saline
  T/C: 113 % of control

## CC(=O)OCC1OC(n2cc(C)c(=O)[nH]c2=O)C(Nc2ccc([N+](=O)[O-])cc2[N+](=O)[O-])C(OC(C)=O)C1OC(C)=O (stereo not given)
dose: 50.0 mg/kg/injection, schedule: Q01DX001 (ip), vehicle: carboxymethylcellulose (CMC)
  T/C: 97 % of control
dose: 100.0 mg/kg/injection, schedule: Q01DX001 (ip), vehicle: carboxymethylcellulose (CMC)
  T/C: 94 % of control
dose: 200.0 mg/kg/injection, schedule: Q01DX001 (ip), vehicle: carboxymethylcellulose (CMC)
  T/C: 94 % of control
dose: 400.0 mg/kg/injection, schedule: Q01DX001 (ip), vehicle: carboxymethylcellulose (CMC)
  T/C: 89 % of control

## O=C(CCCC(=O)NNC(=O)Nc1ccccc1Cl)NNC(=O)Nc1ccccc1Cl
[1]
  T/C: 102 % of control
[2]
  T/C: 96 % of control
[3]
  T/C: 100 % of control
[4]
  T/C: 93 % of control

## NC(N)=N/N=C/c1ccccc1O
[10]
  T/C: 98 % of control and 91 % of control
dose: 31.0 mg/kg/injection, schedule: Q01DX Z (ip), vehicle: saline
  T/C: 87 % of control and 91 % of control
dose: 63.0 mg/kg/injection, schedule: Q01DX Z (ip), vehicle: saline
  T/C: 87 % of control
dose: 125.0 mg/kg/injection, schedule: Q01DX Z (ip), vehicle: saline
  T/C: 87 % of control

## COc1ccc(NC(=O)NCc2ccccc2Cl)c(OC)c1
dose: 100.0 mg/kg/injection, schedule: Q01DX009 (ip), vehicle: Klucel (hydroxypropylcellulose) (HPC)
  T/C: 102 % of control
dose: 200.0 mg/kg/injection, schedule: Q01DX009 (ip), vehicle: Klucel (hydroxypropylcellulose) (HPC)
  T/C: 96 % of control
dose: 400.0 mg/kg/injection, schedule: Q01DX009 (ip), vehicle: Klucel (hydroxypropylcellulose) (HPC)
  T/C: 98 % of control

## O=c1[nH]nc(-c2ccc(Cl)c(Cl)c2)s1
dose: 75.0 mg/kg/injection, schedule: Q01DX001 (ip), vehicle: saline
  T/C: 95 % of control
dose: 75.0 mg/kg/injection, schedule: Q04DX003 (ip), vehicle: saline
  T/C: 95 % of control
dose: 150.0 mg/kg/injection, schedule: Q01DX001 (ip), vehicle: saline
  T/C: 92 % of control
dose: 150.0 mg/kg/injection, schedule: Q04DX003 (ip), vehicle: saline
  T/C: 95 % of control
dose: 300.0 mg/kg/injection, schedule: Q01DX001 (ip), vehicle: saline
  T/C: 92 % of control
dose: 300.0 mg/kg/injection, schedule: Q04DX003 (ip), vehicle: saline
  T/C: 96 % of control

## CCCCCCC(=O)/C=C\c1ccccc1
dose: 100.0 mg/kg/injection, schedule: Q01DX001 (sc), vehicle: other
  T/C: 94 % of control
dose: 200.0 mg/kg/injection, schedule: Q01DX001 (sc), vehicle: other
  T/C: 91 % of control
dose: 400.0 mg/kg/injection, schedule: Q01DX001 (sc), vehicle: other
  T/C: 100 % of control

## Nc1cnccc1Nc1ccc(-c2ccccc2)cc1
[5]
  T/C: 92 % of control

## CC(=O)OC1OC(CF)C(OC(C)=O)C1OC(C)=O (stereo not given)
[5]
  T/C: 92 % of control

## C[N+]1(CCO)CC[N+](C)(CCO)CC1 (stereo not given)
dose: 100.0 mg/kg/injection, schedule: Q04DX002 (ip), vehicle: saline
  T/C: 90 % of control
dose: 200.0 mg/kg/injection, schedule: Q04DX002 (ip), vehicle: saline
  T/C: 104 % of control
dose: 400.0 mg/kg/injection, schedule: Q04DX002 (ip), vehicle: saline
  T/C: 101 % of control

Source: PubChem BioAssay AID248 (DTP/NCI, 2004)
